{"source": "ChEMBL document CHEMBL5543167", "about": "“Design, Synthesis, and Biological Evaluation of Novel EGFR PROTACs Targeting C797S Mutation” (J Med Chem, 2024)", "key": {"[1]": {"test": "Toxicity in BALB/c nude mouse xenografted with human H1975-TM cells assessed as liver lesions at 25 to 100 mg/kg, po administered once daily for 31 days by Hematoxylin and eosin staining based analysis", "type": "organism-based", "conditions": "in vivo, 744 h, dose 25-100 mg/kg, time 31 day"}, "[2]": {"test_system": "Protein cereblon/Epidermal growth factor receptor (Homo sapiens), P00533+Q96SW2 [L858R,T790M,C797S]", "test": "PROTAC activity at CRBN/EGFR L858R/T790M/C797S mutant in human H1975-TM cells assessed as induction of EGFR degradation by measuring remaining activity at 100 nM incubated for 12 hrs by Western blot analysis (reference value: 100%)", "type": "cell-based"}, "[3]": {"test_system": "Protein cereblon/Epidermal growth factor receptor (Homo sapiens), P00533+Q96SW2 [L858R,T790M,C797S]", "test": "PROTAC activity at CRBN/EGFR L858R/T790M/C797S mutant in human H1975-TM cells assessed as induction of EGFR degradation by measuring remaining activity at 50 nM preincubated with MG132 for 6 hrs followed by compound addition and measured after 24 hrs by Western blot analysis (reference value: 100%)", "type": "cell-based"}, "[4]": {"test_system": "Protein cereblon/Epidermal growth factor receptor (Homo sapiens), P00533+Q96SW2 [L858R,T790M,C797S]", "test": "PROTAC activity at CRBN/EGFR L858R/T790M/C797S mutant in human H1975-TM cells assessed as induction of EGFR degradation by measuring remaining activity at 33 nM incubated for 24 hrs by Western blot analysis (reference value: 100%)", "type": "cell-based"}, "[5]": {"test": "Toxicity in BALB/c nude mouse xenografted with human H1975-TM cells assessed as spleen lesions at 25 to 100 mg/kg, po administered once daily for 31 days by Hematoxylin and eosin staining based analysis", "type": "organism-based", "conditions": "in vivo, 744 h, dose 25-100 mg/kg, time 31 day"}, "A549": {"test_system": "A549", "test": "Antiproliferative activity against human A549 cells harboring wildtype EGFR assessed as inhibition of cell proliferation incubated for 72 hrs by CCK8 assay", "type": "functional, cell-based", "conditions": "A549, 72 h"}, "[6]": {"target": "Epidermal growth factor receptor (Homo sapiens, UniProt P00533, C797S/L858R/T790M)", "test": "Binding affinity to EGFR L858R/T790M/C797S mutant (unknown origin) assessed as dissociation constant incubated for 10 mins under dark condition by MST analysis"}, "[7]": {"test": "MRT (0 to infinity) in male Sprague-Dawley rat at 50 mg/kg, po measured after 24 hrs by LC-MS/MS analysis", "type": "ADME, organism-based", "conditions": "in vivo"}, "[8]": {"target": "Cyclin-dependent kinase 12 (Homo sapiens) (UniProt Q9NYV4)", "sequence (Q9NYV4 whole entry, looked up)": "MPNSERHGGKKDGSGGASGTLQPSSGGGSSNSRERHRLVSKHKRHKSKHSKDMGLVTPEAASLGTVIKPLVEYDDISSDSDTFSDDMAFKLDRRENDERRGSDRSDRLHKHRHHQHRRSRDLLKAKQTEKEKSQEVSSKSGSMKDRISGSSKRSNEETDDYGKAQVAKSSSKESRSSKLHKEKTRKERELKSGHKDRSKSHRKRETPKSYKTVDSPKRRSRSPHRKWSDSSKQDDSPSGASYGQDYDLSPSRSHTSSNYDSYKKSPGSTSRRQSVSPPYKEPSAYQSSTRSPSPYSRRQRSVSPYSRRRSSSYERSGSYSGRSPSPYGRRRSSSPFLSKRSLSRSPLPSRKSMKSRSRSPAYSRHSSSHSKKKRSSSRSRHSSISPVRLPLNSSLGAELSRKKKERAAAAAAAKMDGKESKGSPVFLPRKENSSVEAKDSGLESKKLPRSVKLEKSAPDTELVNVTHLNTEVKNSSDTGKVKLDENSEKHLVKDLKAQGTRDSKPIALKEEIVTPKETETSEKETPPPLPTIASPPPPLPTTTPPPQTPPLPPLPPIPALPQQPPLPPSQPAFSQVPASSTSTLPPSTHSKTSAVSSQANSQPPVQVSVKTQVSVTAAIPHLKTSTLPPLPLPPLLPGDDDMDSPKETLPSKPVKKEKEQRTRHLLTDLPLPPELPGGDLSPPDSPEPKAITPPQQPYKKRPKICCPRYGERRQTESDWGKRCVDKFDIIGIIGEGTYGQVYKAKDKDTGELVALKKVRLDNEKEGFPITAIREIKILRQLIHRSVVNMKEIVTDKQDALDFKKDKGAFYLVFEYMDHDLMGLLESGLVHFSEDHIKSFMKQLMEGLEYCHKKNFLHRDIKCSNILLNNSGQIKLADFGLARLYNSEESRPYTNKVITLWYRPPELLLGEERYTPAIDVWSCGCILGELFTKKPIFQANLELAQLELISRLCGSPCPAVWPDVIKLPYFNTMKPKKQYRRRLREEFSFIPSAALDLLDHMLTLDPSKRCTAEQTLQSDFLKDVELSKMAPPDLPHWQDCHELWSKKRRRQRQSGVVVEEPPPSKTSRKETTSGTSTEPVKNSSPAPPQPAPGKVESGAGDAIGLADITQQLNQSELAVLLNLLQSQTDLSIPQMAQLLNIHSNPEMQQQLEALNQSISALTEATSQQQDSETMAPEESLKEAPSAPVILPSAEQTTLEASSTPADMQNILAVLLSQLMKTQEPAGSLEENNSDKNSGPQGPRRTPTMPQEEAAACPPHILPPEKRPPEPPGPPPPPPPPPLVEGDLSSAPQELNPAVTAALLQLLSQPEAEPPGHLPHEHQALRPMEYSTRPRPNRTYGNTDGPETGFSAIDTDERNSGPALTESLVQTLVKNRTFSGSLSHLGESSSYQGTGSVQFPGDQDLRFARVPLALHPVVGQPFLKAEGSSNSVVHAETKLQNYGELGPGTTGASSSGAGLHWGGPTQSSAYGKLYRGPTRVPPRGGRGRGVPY", "test": "Induction of CDK12 degradation in human H1975-TM cells at 50 nM incubated for 24 hrs", "type": "cell-based"}, "[9]": {"test_system": "Protein cereblon/Epidermal growth factor receptor (Homo sapiens), P00533+Q96SW2 [L858R,T790M,C797S]", "test": "PROTAC activity at CRBN/EGFR L858R/T790M/C797S mutant in human H1975-TM cells assessed as induction of EGFR degradation by measuring maximal efficacy at 300 nM incubated for 24 hrs by Western blot analysis relative to control", "type": "cell-based"}, "H1975-TM [10]": {"test_system": "H1975-TM", "test": "Antitumor activity against human H1975-TM cells xenografted in BALB/c nude mouse assessed as decrease in tumor cell proliferation at 25 to 100 mg/kg, po administered once daily for 31 days by Ki67 staining based light microscopic analysis", "type": "functional, organism-based", "conditions": "dose 25-100 mg/kg, time 31.0 day"}, "[11]": {"target": "Epidermal growth factor receptor (Homo sapiens) (UniProt P00533)", "sequence (P00533 whole entry)": "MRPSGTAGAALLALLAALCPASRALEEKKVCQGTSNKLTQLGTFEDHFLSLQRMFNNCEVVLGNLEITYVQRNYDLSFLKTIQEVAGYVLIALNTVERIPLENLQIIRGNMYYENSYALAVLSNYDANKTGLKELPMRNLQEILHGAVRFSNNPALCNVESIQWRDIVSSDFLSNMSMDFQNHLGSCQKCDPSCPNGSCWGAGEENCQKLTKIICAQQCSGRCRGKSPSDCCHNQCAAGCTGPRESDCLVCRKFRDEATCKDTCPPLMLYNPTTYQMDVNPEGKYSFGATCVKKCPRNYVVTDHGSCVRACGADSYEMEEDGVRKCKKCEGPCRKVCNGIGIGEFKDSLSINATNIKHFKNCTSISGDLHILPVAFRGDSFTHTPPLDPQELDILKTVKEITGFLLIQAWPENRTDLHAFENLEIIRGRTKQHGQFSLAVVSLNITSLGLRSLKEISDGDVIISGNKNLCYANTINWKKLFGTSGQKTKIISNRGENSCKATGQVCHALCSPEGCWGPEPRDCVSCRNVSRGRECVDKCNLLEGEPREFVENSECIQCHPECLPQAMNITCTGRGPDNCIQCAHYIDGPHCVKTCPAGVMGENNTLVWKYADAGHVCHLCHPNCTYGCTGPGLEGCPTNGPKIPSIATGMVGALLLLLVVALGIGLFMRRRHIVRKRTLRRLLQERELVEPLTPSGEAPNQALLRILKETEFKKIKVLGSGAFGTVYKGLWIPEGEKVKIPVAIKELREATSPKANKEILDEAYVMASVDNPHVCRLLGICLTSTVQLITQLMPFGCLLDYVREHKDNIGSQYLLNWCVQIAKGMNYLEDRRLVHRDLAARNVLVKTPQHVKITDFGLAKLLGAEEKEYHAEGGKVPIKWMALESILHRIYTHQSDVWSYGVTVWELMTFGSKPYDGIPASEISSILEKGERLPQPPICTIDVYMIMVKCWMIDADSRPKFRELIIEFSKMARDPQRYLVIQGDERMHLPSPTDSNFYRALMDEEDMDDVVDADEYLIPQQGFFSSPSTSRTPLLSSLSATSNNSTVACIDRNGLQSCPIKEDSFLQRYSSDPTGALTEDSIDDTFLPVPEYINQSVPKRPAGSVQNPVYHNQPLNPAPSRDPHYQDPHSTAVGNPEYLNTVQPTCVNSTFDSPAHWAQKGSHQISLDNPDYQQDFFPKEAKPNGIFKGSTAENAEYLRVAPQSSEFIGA", "test": "Inhibition of EGFR signaling in human H1975-TM cells harboring EGFR L858R/T790M/C797S mutant assessed as reduction in EGFR phosphorylation by Western blot analysis", "type": "cell-based", "conditions": "dose 1.2-300 nM"}, "Mus musculus": {"test_system": "Mus musculus", "test": "In vivo inhibition of EGFR signaling in BALB/c nude mouse xenografted with human […] cells assessed as reduction in AKT activation at 25 to 100 mg/kg, po administered once daily for 31 days by Western blot analysis", "type": "functional, organism-based", "conditions": "dose 25-100 mg/kg, time 31.0 day"}, "PC-9": {"test_system": "PC-9", "test": "Antiproliferative activity against human PC-9 cells harboring EGFR exon 19 deletion mutant assessed as inhibition of cell proliferation incubated for 72 hrs by CCK8 assay", "type": "functional, cell-based", "conditions": "PC-9, 72 h"}, "[12]": {"test_system": "Protein cereblon/Epidermal growth factor receptor (Homo sapiens), P00533+Q96SW2 [L858R,T790M,C797S]", "test": "PROTAC activity at CRBN/EGFR L858R/T790M/C797S mutant in human H1975-TM cells assessed as induction of EGFR degradation by measuring remaining activity at 100 nM preincubated for 24 hrs followed by compound washout and measured after 24 hrs by Western blot analysis (reference value: 100%)", "type": "cell-based"}, "[13]": {"test": "AUC (0 to infinity) in male Sprague-Dawley rat at 50 mg/kg, po measured after 24 hrs by LC-MS/MS analysis", "type": "ADME, organism-based", "conditions": "in vivo"}, "[14]": {"test": "Cmax in male Sprague-Dawley rat at 5 mg/kg, iv measured after 24 hrs by LC-MS/MS analysis", "type": "ADME, organism-based", "conditions": "in vivo"}, "[15]": {"test": "Toxicity in BALB/c nude mouse xenografted with human H1975-TM cells assessed as effect on body weight at 25 to 100 mg/kg, po administered once daily for 31 days", "type": "organism-based", "conditions": "in vivo, 744 h, dose 25-100 mg/kg, time 31 day"}, "[16]": {"test": "Potency index, ratio of brigatinib IC50 to test compound IC50 for antiproliferative activity against human […] cells harboring EGFR L858R/T790M/C797S mutant assessed as inhibition of cell growth incubated for 72 hrs by CCK-8 assay", "type": "functional, H1975-TM"}, "[17]": {"test": "Toxicity in BALB/c nude mouse xenografted with human H1975-TM cells assessed as heart lesions at 25 to 100 mg/kg, po administered once daily for 31 days by Hematoxylin and eosin staining based analysis", "type": "organism-based", "conditions": "in vivo, 744 h, dose 25-100 mg/kg, time 31 day"}, "[18]": {"target": "Hepatocyte growth factor receptor (Homo sapiens) (UniProt P08581)", "sequence (P08581 whole entry)": "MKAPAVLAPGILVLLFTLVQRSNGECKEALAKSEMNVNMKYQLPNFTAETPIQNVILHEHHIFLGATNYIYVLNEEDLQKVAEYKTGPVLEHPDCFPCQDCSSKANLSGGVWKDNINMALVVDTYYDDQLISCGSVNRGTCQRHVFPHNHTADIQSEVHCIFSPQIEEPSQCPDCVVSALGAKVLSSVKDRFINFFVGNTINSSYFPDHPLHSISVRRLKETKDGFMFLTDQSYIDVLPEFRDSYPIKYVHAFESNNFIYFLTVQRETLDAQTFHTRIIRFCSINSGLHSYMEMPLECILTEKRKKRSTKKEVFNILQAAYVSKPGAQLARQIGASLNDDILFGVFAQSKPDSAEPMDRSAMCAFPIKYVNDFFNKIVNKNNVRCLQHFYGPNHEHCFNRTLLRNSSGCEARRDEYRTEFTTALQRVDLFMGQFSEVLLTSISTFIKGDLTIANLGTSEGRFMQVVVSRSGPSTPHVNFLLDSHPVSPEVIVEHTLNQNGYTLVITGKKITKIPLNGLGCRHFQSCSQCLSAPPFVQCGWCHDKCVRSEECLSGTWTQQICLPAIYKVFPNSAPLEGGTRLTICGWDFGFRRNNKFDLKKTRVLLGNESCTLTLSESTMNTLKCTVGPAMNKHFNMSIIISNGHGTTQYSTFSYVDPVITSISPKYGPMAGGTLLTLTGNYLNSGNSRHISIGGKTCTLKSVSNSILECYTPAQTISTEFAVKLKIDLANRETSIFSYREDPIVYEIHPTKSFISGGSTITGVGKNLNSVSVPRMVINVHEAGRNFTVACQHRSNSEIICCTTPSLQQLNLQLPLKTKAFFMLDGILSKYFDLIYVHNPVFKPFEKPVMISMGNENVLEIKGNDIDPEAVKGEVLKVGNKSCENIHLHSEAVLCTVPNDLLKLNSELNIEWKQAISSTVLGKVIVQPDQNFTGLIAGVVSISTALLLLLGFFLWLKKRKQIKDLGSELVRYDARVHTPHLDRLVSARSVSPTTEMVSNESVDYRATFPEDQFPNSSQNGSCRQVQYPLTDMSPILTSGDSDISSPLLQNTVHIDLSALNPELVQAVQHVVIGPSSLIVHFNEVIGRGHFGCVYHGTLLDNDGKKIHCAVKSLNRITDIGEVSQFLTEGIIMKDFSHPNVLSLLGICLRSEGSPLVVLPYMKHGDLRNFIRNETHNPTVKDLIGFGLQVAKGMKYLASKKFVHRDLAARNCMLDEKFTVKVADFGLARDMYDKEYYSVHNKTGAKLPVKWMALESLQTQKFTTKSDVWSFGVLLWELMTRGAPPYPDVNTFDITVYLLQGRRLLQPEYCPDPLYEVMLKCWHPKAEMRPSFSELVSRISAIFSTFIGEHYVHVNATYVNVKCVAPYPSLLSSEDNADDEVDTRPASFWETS", "test": "Induction of MET degradation in human H1975-TM cells at 50 nM incubated for 24 hrs", "type": "cell-based"}, "[19]": {"test_system": "Protein cereblon/Epidermal growth factor receptor (Homo sapiens), P00533+Q96SW2 [L858R,T790M,C797S]", "test": "PROTAC activity at CRBN/EGFR L858R/T790M/C797S mutant in human H1975-TM cells assessed as induction of EGFR degradation by measuring remaining activity at 100 nM preincubated for 24 hrs followed by compound washout and measured after 48 hrs by Western blot analysis (reference value: 100%)", "type": "cell-based"}, "[20]": {"target": "Protein cereblon/Epidermal growth factor receptor (Homo sapiens, UniProt P00533+Q96SW2, T790M/C797S/L858R)", "test": "PROTAC activity at CRBN/EGFR L858R/T790M/C797S mutant in human H1975-TM cells assessed as induction of EGFR degradation incubated for 24 hrs by Western blot analysis", "type": "cell-based"}, "H1975-TM [21]": {"test_system": "H1975-TM", "test": "Antitumor activity against human H1975-TM cells xenografted in BALB/c nude mouse assessed as increase in tumor necrosis at 25 to 100 mg/kg, po administered once daily for 31 days by H&E staining based light microscopic analysis", "type": "functional, organism-based", "conditions": "dose 25-100 mg/kg, time 31.0 day"}, "[22]": {"test_system": "Protein cereblon/Epidermal growth factor receptor (Homo sapiens), P00533+Q96SW2 [L858R,T790M,C797S]", "test": "PROTAC activity at CRBN/EGFR L858R/T790M/C797S mutant in human H1975-TM cells assessed as induction of EGFR degradation by measuring remaining activity at 50 nM incubated for 24 hrs by Western blot analysis (reference value: 100%)", "type": "cell-based"}, "[23]": {"test_system": "Protein cereblon/Epidermal growth factor receptor (Homo sapiens), P00533+Q96SW2 [L858R,T790M,C797S]", "test": "PROTAC activity at CRBN/EGFR L858R/T790M/C797S mutant in human H1975-TM cells assessed as induction of EGFR degradation by measuring remaining activity at 3.7 nM incubated for 24 hrs by Western blot analysis (reference value: 100%)", "type": "cell-based"}, "[24]": {"target": "Epidermal growth factor receptor (Homo sapiens) (UniProt P00533)", "test": "Inhibition of EGFR signaling in human H1975-TM cells harboring EGFR L858R/T790M/C797S mutant assessed as reduction in ERK activation by Western blot analysis", "type": "cell-based", "conditions": "dose 1.2-300 nM"}}, "note": "The source made the active and inactive calls. The calls are words filed in the database; no cut-off is given here."}
{"smiles": "CCS(=O)(=O)n1cc(-c2nc(Nc3ccc(N4CCN(CCCCCCC(=O)Nc5cccc6c5CN(C5CCC(=O)NC5=O)C6=O)CC4)cc3)ncc2C(F)(F)F)c2ccccc21", "note": "(configuration not stated)", "values": [{"measurement": "Activity", "setting": "[1]", "result": "Non-Toxic"}, {"measurement": "Activity", "setting": "[2]", "result": 44.5, "unit": "%"}, {"measurement": "Activity", "setting": "[3]", "result": 73.6, "unit": "%"}, {"measurement": "Activity", "setting": "[4]", "result": 6.5, "unit": "%"}, {"measurement": "Activity", "setting": "[5]", "result": "Non-Toxic"}, {"measurement": "IC50", "setting": "A549", "result": 97.5, "unit": "nM"}, {"measurement": "Kd", "setting": "[6]", "result": 240, "unit": "nM"}, {"measurement": "MRT inf", "setting": "[7]", "result": 21.4, "unit": "h"}, {"measurement": "Activity", "setting": "[8]", "result": "Active"}, {"measurement": "Emax", "setting": "[9]", "result": "> 95", "unit": "%"}, {"measurement": "Activity", "setting": "H1975-TM [10]", "result": "Active"}, {"measurement": "inhibition", "setting": "[11]", "result": "Dose-Dependent Effect"}, {"measurement": "inhibition", "setting": "Mus musculus", "result": "Active"}, {"measurement": "IC50", "setting": "PC-9", "result": 17.5, "unit": "nM"}, {"measurement": "Activity", "setting": "[12]", "result": 52.9, "unit": "%"}, {"measurement": "AUC(0-inf)", "setting": "[13]", "result": 750, "unit": "ng·h/mL"}, {"measurement": "Cmax", "setting": "[14]", "result": 4600, "unit": "ng/mL"}, {"measurement": "Activity", "setting": "[15]", "result": "Non-Toxic"}, {"measurement": "Ratio IC50", "setting": "[16]", "result": 55}, {"measurement": "Activity", "setting": "[17]", "result": "Non-Toxic"}, {"measurement": "Activity", "setting": "[18]", "result": "Active"}, {"measurement": "Activity", "setting": "[19]", "result": 66.6, "unit": "%"}, {"measurement": "DC50", "setting": "[20]", "result": 10.2, "unit": "nM"}, {"measurement": "Activity", "setting": "H1975-TM [21]", "result": "Active"}, {"measurement": "Activity", "setting": "[22]", "result": 5.8, "unit": "%"}, {"measurement": "Activity", "setting": "[23]", "result": 46.6, "unit": "%"}, {"measurement": "inhibition", "setting": "[24]", "result": "Dose-Dependent Effect"}]}
